Results: patent publication US11524942B2, “Metabolites of [3-(4-{2-butyl-1-[4-(4-chloro-phenoxy)-phenyl]-1H-imidazol-4 yl}-phenoxy)-propyl]-diethyl-amine” (vTv Therapeutics LLC, priority 2018, dated 2022)
pKd: −log10 of the molar value.

target: human sRAGE (the soluble extracellular domain of the human receptor for advanced glycation endproducts) (Homo sapiens (Human), UniProt Q15109); experiment: Microscale thermophoresis binding affinity to recombinant human sRAGE; conditions: 25° C., pH 7.5
Procedure: Around 5 nM sRAGE was subsequently added to compounds at concentrations from 600 nM to 20 pM and incubated for 5 minutes at 25° C. in buffer containing 25 mM Hepes (pH 7.5), 5 mM CaCl2), 5 mM MgCl2, 50 mM NaCl, 0.05% Tween20 and 1% DMSO before proceeding to microscale thermophoresis.
The raw thermophoresis data and average Kds were generated according to manufacturer's protocol using the Microscale Thermophoresis System analysis software.

Sequence of human sRAGE (the soluble extracellular domain of the human receptor for advanced glycation endproducts) (Q15109 23-342): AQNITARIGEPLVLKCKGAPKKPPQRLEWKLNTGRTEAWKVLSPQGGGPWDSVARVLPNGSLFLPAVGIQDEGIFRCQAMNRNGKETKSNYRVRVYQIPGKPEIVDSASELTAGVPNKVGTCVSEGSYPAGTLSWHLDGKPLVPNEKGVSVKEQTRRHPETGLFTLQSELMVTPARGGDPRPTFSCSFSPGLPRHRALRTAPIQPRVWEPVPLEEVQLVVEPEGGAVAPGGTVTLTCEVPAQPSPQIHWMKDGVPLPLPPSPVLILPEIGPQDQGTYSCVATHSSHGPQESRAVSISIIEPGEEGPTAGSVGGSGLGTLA

pKd	SMILES
8.01	CCCCc1nc(-c2ccc(OCCCN(CC)CC)cc2)cn1-c1ccc(Oc2ccc(Cl)cc2O)cc1 [Metabolite M5, 2-[4-[2-butyl-4-[4-[3-(diethylamino)propoxy]phenyl]imidazol-1-yl]phenoxy]-5-chloro-phenol]
8.01	CCCCc1nc(-c2ccc(OCCCN(CC)CC)cc2)cn1-c1ccc(Oc2ccc(Cl)c(O)c2)cc1 [Metabolite M6, 5-[4-[2-butyl-4-[4-[3-(diethylamino)propoxy]phenyl]imidazol-1-yl]phenoxy]-2-chloro-phenol]

Further lines, the compound ahead of its results:

SMILES	pKd
CCCCc1nc(-c2ccc(OCCC(=O)O)cc2)cn1-c1ccc(Oc2ccc(Cl)cc2)cc1 [Metabolite M1, 3-(4-{2-Butyl-1-[4-(4-chloro-phenoxy)-phenyl]-1H-imidazol-4-yl}-phenoxy)-propionic acid]	6.66
CCCCc1nc(-c2ccc(OCCCO)cc2)cn1-c1ccc(Oc2ccc(Cl)cc2)cc1 [Metabolite M7, 3-(4-{2-Butyl-1-[4-(4-chloro-phenoxy)-phenyl]-1H-imidazol-4-yl}-phenoxy)-propan-1-ol]	7.00
CCCCc1nc(-c2ccc(O)cc2)cn1-c1ccc(Oc2ccc(Cl)cc2)cc1 [Metabolite M3, 4-{2-butyl-1-[4-(4-chloro-phenoxy)-phenyl]-1H-imidazol-4-yl}-phenol]	6.59
